According to patent publication US8013156B2 (Exelixis, Inc., priority 2003, dated 2011):

Each compound was assayed against Tie-2 (Homo sapiens, UniProt Q02763) (assay: Tie-2 tyrosine kinase activity assay (luciferase/luciferin ATP consumption with pEY substrate, or 33P-ATP incorporation)). Conditions: human enzyme Tie-2.
Tie-2, sequence (Q02763 23-1124): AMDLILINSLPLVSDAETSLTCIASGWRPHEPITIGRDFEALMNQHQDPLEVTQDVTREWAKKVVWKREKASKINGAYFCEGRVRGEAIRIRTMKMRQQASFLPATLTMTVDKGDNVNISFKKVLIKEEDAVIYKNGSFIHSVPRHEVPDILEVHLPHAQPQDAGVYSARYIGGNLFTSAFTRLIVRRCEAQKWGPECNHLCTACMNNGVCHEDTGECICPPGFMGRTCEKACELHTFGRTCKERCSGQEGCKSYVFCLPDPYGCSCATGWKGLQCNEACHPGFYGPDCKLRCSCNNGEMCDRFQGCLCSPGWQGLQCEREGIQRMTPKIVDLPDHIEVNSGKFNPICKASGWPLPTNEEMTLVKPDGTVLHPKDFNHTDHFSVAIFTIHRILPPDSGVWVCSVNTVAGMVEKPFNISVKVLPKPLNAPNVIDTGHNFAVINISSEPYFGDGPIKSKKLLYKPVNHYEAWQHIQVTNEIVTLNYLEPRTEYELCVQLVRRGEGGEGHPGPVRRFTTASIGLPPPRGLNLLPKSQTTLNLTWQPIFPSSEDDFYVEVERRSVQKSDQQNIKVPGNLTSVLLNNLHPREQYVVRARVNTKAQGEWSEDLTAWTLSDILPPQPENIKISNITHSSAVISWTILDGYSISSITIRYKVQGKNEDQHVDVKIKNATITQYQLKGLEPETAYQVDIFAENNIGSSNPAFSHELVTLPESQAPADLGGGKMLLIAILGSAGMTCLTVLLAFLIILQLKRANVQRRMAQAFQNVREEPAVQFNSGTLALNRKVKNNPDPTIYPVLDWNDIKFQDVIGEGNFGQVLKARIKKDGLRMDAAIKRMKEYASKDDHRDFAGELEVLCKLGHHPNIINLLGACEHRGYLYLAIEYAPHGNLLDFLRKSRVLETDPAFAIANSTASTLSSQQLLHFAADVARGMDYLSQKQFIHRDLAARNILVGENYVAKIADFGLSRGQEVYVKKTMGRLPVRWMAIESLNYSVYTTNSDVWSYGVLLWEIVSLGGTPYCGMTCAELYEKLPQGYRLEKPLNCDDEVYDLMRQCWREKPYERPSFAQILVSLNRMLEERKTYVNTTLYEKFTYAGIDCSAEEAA
Format: biochemical
Outline: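 Values are IC50 categories (A <50 nM to D ≥10,000 nM), with Ki obtainable by fitting rates to a tight-binding model. Assay formats: 33P-ATP phosphate transfer to adsorbed generic substrate counted by scintillation, or luciferase-detected ATP depletion using pEY.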
`CCc1ccc(F)c(NC(=O)N2CCN(c3nccnc3OCc3ccnc(N)n3)CC2)c1` [Example 203, 4-(3-{[(2-aminopyrimidin-4-yl)methyl]oxy}pyrazin-2-yl)-N-(5-ethyl-2-fluorophenyl)piperazine-1-carboxamide] was tested, and the IC50 was < 0.05 µM. In the case of `CNC(=O)N1CCN(c2ncccc2OCc2ccnc(N)n2)CC1` [Example 204, 4-(3-{[(2-aminopyrimidin-4-yl)methyl]oxy}pyridin-2-yl)-N-methylpiperazine-1-carboxamide], the IC50 is reported as ≥ 10 µM. `CCNC(=O)N1CCN(c2ncccc2OCc2ccnc(N)n2)CC1` [Example 205, 4-(3-{[(2-aminopyrimidin-4-yl)methyl]oxy}pyridin-2-yl)-N-ethylpiperazine-1-carboxamide] was tested, and the IC50 was ≥ 10 µM. In the case of `Nc1nccc(COc2cccnc2N2CCN(C(=O)NC3CCCCC3)CC2)n1` [Example 206, 4-(3-{[(2-aminopyrimidin-4-yl)methyl]oxy}pyridin-2-yl)-N-cyclohexylpiperazine-1-carboxamide], the IC50 is reported as 1 to 10 µM. With `CC(=O)N1CCN(c2ncccc2OCc2ccnc(N)n2)CC1` [Example 207, 4-({[2-(4-acetylpiperazin-1-yl)pyridin-3-yl]oxy}methyl)pyrimidin-2-amine] the IC50 was ≥ 10 µM. `CCC(=O)N1CCN(c2ncccc2OCc2ccnc(N)n2)CC1` [Example 208, 4-({[2-(4-propanoylpiperazin-1-yl)pyridin-3-yl]oxy}methyl)pyrimidin-2-amine] was tested, and the IC50 was ≥ 10 µM. In the case of `CN1CCN(CC(=O)Nc2cc(COc3cccnc3N3CCN(C(=O)Nc4cccc(C5CC5)c4)CC3)ccn2)CC1` [Example 209, N-(3-cyclopropylphenyl)-4-(3-{[(2-{[(4-methylpiperazin-1-yl)acetyl]amino}pyridin-4-yl)methyl]oxy}pyridin-2-yl)piperazine-1-carboxamide], the IC50 is reported as < 0.05 µM. With `Nc1nccc(COc2cccnc2N2CCN(C(=O)Nc3cccc(C4CC4)c3)CC2)n1` [Example 210, 4-(3-{[(2-aminopyrimidin-4-yl)methyl]oxy}pyridin-2-yl)-N-(3-cyclopropylphenyl)piperazine-1-carboxamide] the IC50 was < 0.05 µM. For `CN1CCN(CC(=O)Nc2cc(COc3cccnc3N3CCN(C(=O)Nc4cc(C(F)(F)F)ccc4F)CC3)ccn2)CC1` [Example 211, N-[2-fluoro-5-(trifluoromethyl)phenyl]-4-(3-{[(2-{[(4-methylpiperazin-1-yl)acetyl]amino}pyridin-4-yl)methyl]oxy}pyridin-2-yl)piperazine-1-carboxamide], the IC50 was 0.05 to 1 µM. `CN1CCN(CC(=O)Nc2cc(COc3cccnc3N3CCN(C(=O)Nc4cc(F)cc(C(F)(F)F)c4)CC3)ccn2)CC1` [Example 212, N-[3-fluoro-5-(trifluoromethyl)phenyl]-4-(3-{[(2-{[(4-methylpiperazin-1-yl)acetyl]amino}pyridin-4-yl)methyl]oxy}pyridin-2-yl)piperazine-1-carboxamide] was tested, and the IC50 was < 0.05 µM. For `CN1CCN(CC(=O)Nc2cc(COc3cccnc3N3CCN(C(=O)Nc4cc(Cl)cc(Cl)c4)CC3)ccn2)CC1` [Example 213, N-(3,5-dichlorophenyl)-4-(3-{[(2-{[(4-methylpiperazin-1-yl)acetyl]amino}pyridin-4-yl)methyl]oxy}pyridin-2-yl)piperazine-1-carboxamide], the IC50 was < 0.05 µM. In the case of `CN1CCN(CC(=O)Nc2cc(COc3cccnc3N3CCN(C(=O)Nc4cccc(C(F)(F)F)c4)CC3)ccn2)CC1` [Example 214, 4-(3-{[(2-{[(4-methylpiperazin-1-yl)acetyl]amino}pyridin-4-yl)methyl]oxy}pyridin-2-yl)-N-[3-(trifluoromethyl)phenyl]piperazine-1-carboxamide], the IC50 is reported as < 0.05 µM. In the case of `CCc1cc(CC)cc(NC(=O)N2CCN(c3nccnc3OCc3ccnc(N)n3)CC2)c1` [Example 215, 4-(3-{[(2-aminopyrimidin-4-yl)methyl]oxy}pyrazin-2-yl)-N-(3,5-diethylphenyl)piperazine-1-carboxamide], the IC50 is reported as < 0.05 µM. With `CC(Oc1cccnc1N1CCN(C(=O)Nc2cc(C(F)(F)F)cc(C(F)(F)F)c2)CC1)c1ccnc(N)n1` (stereo not drawn) [Example 216, 4-(3-{[1-(2-aminopyrimidin-4-yl)ethyl]oxy}pyridin-2-yl)-N-[3,5-bis(trifluoromethyl)phenyl]piperazine-1-carboxamide] the IC50 was < 0.05 µM. `Nc1nccc(COc2nccnc2N2CCN(C(=O)Nc3cc(Cl)cc(Cl)c3)CC2)n1` [Example 217, 4-(3-{[(2-aminopyrimidin-4-yl)methyl]oxy}pyrazin-2-yl)-N-(3,5-dichlorophenyl)piperazine-1-carboxamide] was tested, and the IC50 was < 0.05 µM. With `Nc1nccc(COc2nccnc2N2CCN(C(=O)Nc3cc(F)cc(C(F)(F)F)c3)CC2)n1` [Example 218, 4-(3-{[(2-aminopyrimidin-4-yl)methyl]oxy}pyrazin-2-yl)-N-[3-fluoro-5-(trifluoromethyl)phenyl]piperazine-1-carboxamide] the IC50 was < 0.05 µM. In the case of `Nc1nccc(COc2cccnc2N2CCN(C(=O)N3CCCc4ccccc43)CC2)n1` [Example 219, 4-[({2-[4-(3,4-dihydroquinolin-1(2H)-ylcarbonyl)piperazin-1-yl]pyridin-3-yl}oxy)methyl]pyrimidin-2-amine], the IC50 is reported as ≥ 10 µM. For `CC(C)CNC(=O)N1CCN(c2ncccc2OCc2ccnc(N)n2)CC1` [Example 220, 4-(3-{[(2-aminopyrimidin-4-yl)methyl]oxy}pyridin-2-yl)-N-(2-methylpropyl)piperazine-1-carboxamide], the IC50 was ≥ 10 µM. With `CCc1cc(Cl)cc(NC(=O)N2CCN(c3nsnc3OCc3ccnc(N)n3)CC2)c1` [Example 221, 4-(4-{[(2-aminopyrimidin-4-yl)methyl]oxy}-1,2,5-thiadiazol-3-yl)-N-(3-chloro-5-ethylphenyl)piperazine-1-carboxamide] the IC50 was < 0.05 µM. Compound `CCc1ccc(F)c(NC(=O)N2CCN(c3nsnc3OCc3ccnc(N)n3)CC2)c1` [Example 222, 4-(4-{[(2-aminopyrimidin-4-yl)methyl]oxy}-1,2,5-thiadiazol-3-yl)-N-(5-ethyl-2-fluorophenyl)piperazine-1-carboxamide] has an IC50 of 0.05 to 1 µM. `Nc1nccc(COc2nsnc2N2CCN(C(=O)Nc3cc(Cl)cc(Cl)c3)CC2)n1` [Example 223, 4-(4-{[(2-aminopyrimidin-4-yl)methyl]oxy}-1,2,5-thiadiazol-3-yl)-N-(3,5-dichlorophenyl)piperazine-1-carboxamide] gave an IC50 of 0.05 to 1 µM. `Nc1nccc(COc2nccnc2N2CCN(C(=O)Nc3ccccc3)CC2)n1` [Example 224, 4-(3-{[(2-aminopyrimidin-4-yl)methyl]oxy}pyrazin-2-yl)-N-phenylpiperazine-1-carboxamide] showed an IC50 of 0.05 to 1 µM. `Nc1nccc(COc2nccnc2N2CCN(C(=O)Nc3cc(C(F)(F)F)ccc3F)CC2)n1` [Example 225, 4-(3-{[(2-aminopyrimidin-4-yl)methyl]oxy}pyrazin-2-yl)-N-[2-fluoro-5-(trifluoromethyl)phenyl]piperazine-1-carboxamide] was tested, and the IC50 was < 0.05 µM. For `CCc1cccc(NC(=O)N2CCN(c3nc(C)ccc3OCc3ccnc(N)n3)CC2)c1` [Example 227, 4-(3-{[(2-aminopyrimidin-4-yl)methyl]oxy}-6-methylpyridin-2-yl)-N-(3-ethylphenyl)piperazine-1-carboxamide], the IC50 was < 0.05 µM. For `Cc1ccc(OCc2ccnc(N)n2)c(N2CCN(C(=O)Nc3cc(C(F)(F)F)cc(C(F)(F)F)c3)CC2)n1` [Example 228, 4-(3-{[(2-aminopyrimidin-4-yl)methyl]oxy}-6-methylpyridin-2-yl)-N-[3,5-bis(trifluoromethyl)phenyl]piperazine-1-carboxamide], the IC50 was < 0.05 µM. `Nc1nccc(COc2nccnc2N2CCN(C(=O)Nc3cccc(C(F)(F)F)c3)CC2)n1` [Example 229, 4-(3-{[(2-aminopyrimidin-4-yl)methyl]oxy}pyrazin-2-yl)-N-[3-(trifluoromethyl)phenyl]piperazine-1-carboxamide] was tested, and the IC50 was < 0.05 µM. In the case of `Nc1nccc(COc2nsnc2N2CCN(C(=O)Nc3ccccc3)CC2)n1` [Example 230, 4-(4-{[(2-aminopyrimidin-4-yl)methyl]oxy}-1,2,5-thiadiazol-3-yl)-N-phenylpiperazine-1-carboxamide], the IC50 is reported as ≥ 10 µM. For `Nc1nccc(COc2nsnc2N2CCN(C(=O)Nc3cccc(C(F)(F)F)c3)CC2)n1` [Example 231, 4-(4-{[(2-aminopyrimidin-4-yl)methyl]oxy}-1,2,5-thiadiazol-3-yl)-N-[3-(trifluoromethyl)phenyl]piperazine-1-carboxamide], the IC50 was < 0.05 µM. Work on `Nc1nccc(COc2nsnc2N2CCN(C(=O)Nc3cc(C(F)(F)F)ccc3F)CC2)n1` [Example 232, 4-(4-{[(2-aminopyrimidin-4-yl)methyl]oxy}-1,2,5-thiadiazol-3-yl)-N-[2-fluoro-5-(trifluoromethyl)phenyl]piperazine-1-carboxamide] yielded an IC50 of 0.05 to 1 µM. `CN1CCN(CC(=O)Nc2cc(COc3cccnc3N3CCN(C(=O)Nc4cc(Cl)cc(C(F)(F)F)c4)CC3)ccn2)CC1` [Example 233, N-[3-chloro-5-(trifluoromethyl)phenyl]-4-(3-{[(2-{[(4-methylpiperazin-1-yl)acetyl]amino}pyridin-4-yl)methyl]oxy}pyridin-2-yl)piperazine-1-carboxamide] was tested, and the IC50 was < 0.05 µM. In the case of `Nc1nccc(COc2nccnc2N2CCN(C(=O)Nc3cc(Cl)cc(C(F)(F)F)c3)CC2)n1` [Example 234, 4-(3-{[(2-aminopyrimidin-4-yl)methyl]oxy}pyrazin-2-yl)-N-[3-chloro-5-(trifluoromethyl)phenyl]piperazine-1-carboxamide], the IC50 is reported as < 0.05 µM. With `Nc1nccc(COc2cccnc2N2CCN(C(=O)Nc3cc(Cl)cc(C(F)(F)F)c3)CC2)n1` [Example 235, 4-(3-{[(2-aminopyrimidin-4-yl)methyl]oxy}pyridin-2-yl)-N-[3-chloro-5-(trifluoromethyl)phenyl]piperazine-1-carboxamide] the IC50 was < 0.05 µM. In the case of `CCc1cc(Br)cc(NC(=O)N2CCN(c3nccnc3OCc3ccnc(N)n3)CC2)c1` [Example 236, 4-(3-{[(2-aminopyrimidin-4-yl)methyl]oxy}pyrazin-2-yl)-N-(3-bromo-5-ethylphenyl)piperazine-1-carboxamide], the IC50 is reported as < 0.05 µM.
